Laboratory results from patent US6878690B2, “Compounds and methods” (PharmAxis Pty Ltd., priority 2000, dated 2005).
Several values for one entry are separate records, joined by “and”; a condition that tells them apart may be missing. Equal entries are not always repeated.

Columns and labels:
[1] = test system: lymphocyte migration into the spleen; assay: Inhibition of lymphocyte migration into lymphoid tissue (spleen); format: in vivo, Balb/C mice; settings: intravenous dose of 5 mg of test compound together with labelled lymphocytes; spleens removed 1.5 hours after injection
Text: In the present example, spleens from specific pathogen free 6-8 week old female Balb/C mice [19-21 g] were used to prepare a single cell suspension in the usual manner in mixed lymphocyte culture medium (DMEM plus glucose, folic acid, L-asparagine, sodium bicarbonate, L-glutamine, sodium pyruvate, HEPES, 2-mercaptoethanol, penicillin, streptomycin, neomycin, and 2% fetal calf serum) by pushing through a stainless steel screen. Following cell collection the red blood cells were lysed in the usual manner by treating with a solution of ammonium chloride, EDTA and sodium hydrogen carbonate (pH 7.3) and the preparation strained (Falcon 2350 cell strainer). All cell preparative steps were performed on ice.
In order to deplete the preparation of B lymphocytes, the cells were suspended in purified rat anti-mouse CD45/B220 antibody (RA3-6B2 clone; PharMingen, USA) at a concentration of 4×10^7 cells per ml and incubated on ice for 20 minutes. An equal volume of mixed lymphocyte culture medium (as above) was then added and the cells centrifuged (200× g) and resuspended at a concentration of 1×10^7 cells per ml in BioMag goat ant-rat IgG (H&L) linked to magnetic beads (Bio Mag; Perseptive Diagnostics, Polysciences Inc, USA). Following a 20 minute incubation on ice, with agitation every 5 minutes, the goat anti-rat IgG/antibody complex was removed using magnetic separation (Dynal MPC-6, Dynal, USA). The magnetic separation procedure was repeated 4 times giving a cell population containing approximately 80-90% T lymphocytes (determined by FACS analysis).
The cells were then washed in Hanks media, resuspended in 5 ml of Hanks, and radio-labelled for 30 minutes at 37° C. with sodium chromate solution (^51Cr, 34 MBq/ml, Amersham, UK). The labelled cells were washed in PBS centrifuged (200×g) and a portion were resuspended at a concentration of 3×10^7 cells/ml in either PBS (negative control), or PBS containing the test compound (25 mg/ml), and stored on ice. Balb/C mice in the negative control and treatment groups received a volume of 0.2 ml of the labelled cell preparation by a lateral tail vein injection. Negative control mice received 0.2 ml of PBS together with 6×10^6 51chromium-labelled lymphocytes, and mice from the treated groups received an intravenous dose of 5 mg of the test compound together with 6 million ^51chromium-labelled lymphocytes. […]
Spleens from the recipient mice were removed 1.5 hours after injection and the cell-associated radioactivity (CPM) determined using a gamma counter (Packard Auto-Gamma 5650. IL, USA). Results (inhibition of lymphocyte migration into the spleen) were expressed as a percentage reduction in the CPM of the spleens from treated animals compared with negative controls.

[2] = test system: DTH response to 2,4-dinitrofluorobenzene (DNFB); assay: Delayed-type hypersensitivity (DTH) response to DNFB, ear swelling; format: in vivo, Balb/C mice
Text: In the present Example, a murine model of Type IV hypersensitivity or delayed-type hypersensitivity (DTH) response to cutaneous contact with the chemical hapten 2,4-dinitrofluorobenzene (DNFB) (Aldrich Chemical Company Inc, USA) was used as a model to measure the anti-inflammatory effects of compounds of the present invention. Specific pathogen-free 8-12 week old female Balb/C mice, weighing 19-21 g, were sensitised in a similar manner to that described by Klimuk et al., (Klimuk et al., 1999) by applying a solution of DNFB (0.5% in acetone:olive oil (4:1, v/v); 30 microliters,) onto a 2 cm^2 shaved area of the abdomen. After 7 days, the animals were anesthetised with diethyl ether and 8 microliters of DNFB (0.35% in acetone:olive oil (4:1, v/v) was applied to the dorsal and ventral surfaces of the right pinna. Prior to regaining consciousness, the mice were implanted intraperitoneally with Alzet 2001 mini-osmotic pumps (Alza Corp., Palo Alto Calif., USA) containing phosphoric acid mono-[6-(3-hexyloxy-propyl)-3,4,5-trihydroxy-tetrahydro-pyran-2-ylmethyl] ester, sodium salt in normal saline. The dose delivered was 50 mg/kg/day. Control animals for this group received saline delivered in identical mini-osmotic pumps. A second experimental group of mice received phosphoric acid mono-[3-(3,4,5-trihydroxy-6-phosphonooxymethyl-tetrahydro-pyran-2-yl)-propyl] ester disodium salt via one-week delivery Alzet 2001 mini-osmotic pumps implanted intraperitoneally. This compound was delivered at a dose of 40 mg/kg/day. Control animals for this group received saline delivered in identical mini-osmotic pumps. In a third experiment a separate group of mice received (3,4,5-trihydroxy-6-phosphonooxymethyl-tetrahydro-pyran-2-yl)-acetic acid disodium salt via one-week delivery Alzet 2001 mini-osmotic pumps that were placed intraperitoneally. This compound was delivered at 45 mg/kg/day. The control group for this experiment received identical mini-osmotic pumps containing normal saline. In a fourth experiment a group of mice received 3-phenyl-2-[2-(3,4,5-trihydroxy-6-phosphonooxymethyl-tetrahydro-pyran-2-yl)-acetylamino]-propionic acid monosodium salt via one-week delivery Alzet 2001 mini-osmotic pumps that were placed subcutaneously. This compound was delivered at 62 mg/kg/day. The control group for this experiment received identical mini-osmotic pumps containing normal saline. In a fifth experiment a group of mice received hexanoic acid 3-(3,4,5-trihydroxy-6-phosphonooxymethyl-tetrahydro-pyran-2-yl)-propyl ester sodium salt via one-week delivery Alzet 2001 mini-osmotic pumps that were placed subcutaneously. This compound was delivered at 40 mg/kg/day. The control group for this experiment received identical mini-osmotic pumps containing normal saline.
Twenty-four hours after challenge the mice were lightly anesthetised with diethyl ether and the thickness of the left and right pinnae measured (in millimeters) using a dial gauge micrometer (Interapid, Switzerland). Care was taken to measure only the outer two thirds of the ear. The increase in ear thickness initiated by the DTH response was determined by subtracting the measurement of the left ear (untreated) from the right ear (challenged).
In Table 4, values in the columns labeled Left and Right are measurements of ear thickness in millimeters of the control and challenged ears respectively.

[3] = test system: T lymphocyte migration into the right ear; assay: Inhibition of in vivo migration of T lymphocytes into extra lymphatic tissues (picryl chloride treated ear); design: species or system Balb/C mice; settings: 5 mg per mouse, IV, 9 to 10 hours after cell transfer
Text: T lymphocytes are known to migrate from the blood stream into tissues, including tissues that contain an antigen to which they can respond. An in vivo example of T lymphocyte migration involves the intravenous injection of radioisotopically- or fluorescently-labelled antigen-specific T cells into a mammal that has the antigen present in one or more of its tissues. An assessment of the degree to which the injected T cells have accumulated in the antigen-containing tissue can be made either by measuring the amount of radioactivity present in the tissue or analysing the tissue histologically to determine the number of infiltrated fluorescently labelled cells. […] For example, in the case of a CNS antigen the cells will localise in the brain and spinal cord and the number of labelled cells that have accumulated there can then be determined. […] Within a short time of cell transfer sensitised T cells begin to accumulate in the haptenised tissue and eight to twenty-four hours later the tissue can be removed and the cell accumulation assessed. In the case of fluorescently-labelled cells their accumulation is assessed histologically and in the case of the radio-labelled cells accumulation is assessed by counting radio active decay in a suitable device. […]

| Compound | Percent Inhibition (relative to negative controls) of lymphocyte migration into spleens [1] [%] | Mean percentage decrease in ear swelling in treated animals ([2]; 45 mg/kg/day intraperitoneally, versus saline controls) | Mean Difference, Treated ([2]; group mean, 45 mg/kg/day intraperitoneally, saline control mean 0.068) [millimeters] | Difference (right minus left ear), Treated ([2]; individual mice, 45 mg/kg/day, mini-osmotic pump intraperitoneally, 24 hours after challenge, disodium salt) | Right ear thickness, Treated ([2]; individual mice, challenged ear, 45 mg/kg/day, mini-osmotic pump intraperitoneally, 24 hours after challenge, disodium salt) | Left ear thickness, Treated ([2]; individual mice, control (unchallenged) ear, 45 mg/kg/day, mini-osmotic pump intraperitoneally, 24 hours after challenge, disodium salt) | Percent inhibition of T cell migration [3] [%] |
| --- | --- | --- | --- | --- | --- | --- | --- |
| O=C([O-])CC1OC(COP(=O)(O)O)C(O)C(O)C1O.O=C([O-])CC1OC(COP(=O)(O)O)C(O)C(O)C1O.[Na+].[Na+] (stereo not shown) [(3,4,5-trihydroxy-6-phosphonooxymethyl-tetrahydro-pyran-2-yl)-acetic acid disodium salt] | 85.5 | Mean percentage decrease in ear swelling intreated animals: 29.4% | 0.048 | 0.06 millimeters (2×) and 0.05 millimeters (3×) and 0.03 millimeters (3×) and 0.07 millimeters | 0.27 millimeters (3×) and 0.24 millimeters (2×) and 0.29 millimeters and 0.26 millimeters (3×) | 0.21 millimeters (6×) and 0.22 millimeters (2×) and 0.23 millimeters |  |
| Phenylethyl (3,4,5-trihydroxy-6-phosphonooxymethyl-tetrahydro-pyran-2-yl)-acetic acid ester |  |  |  |  |  |  | 26.1 |
